Experiments:
UACC-62 = assay: NCI-60 screen (SRB); format: cell-based, human; conditions: UACC-62 (Melanoma)
Method: (§1) The human tumor cell lines of the cancer screening panel are grown in RPMI 1640 medium containing 5% fetal bovine serum and 2 mM L-glutamine. For a typical screening experiment, cells are inoculated into 96 well microtiter plates in 100 μL at plating densities ranging from 5,000 to 40,000 cells/well depending on the doubling time of individual cell lines. After cell inoculation, the microtiter plates are incubated at 37° C., 5% CO2, 95% air and 100% relative humidity for 24 h prior to addition of experimental drugs.
(§2) After 24 h, two plates of each cell line are fixed in situ with TCA, to represent a measurement of the cell population for each cell line at the time of drug addition (Tz). Experimental drug is solubilized in dimethyl sulfoxide at 400-fold the desired final maximum test concentration and stored frozen prior to use. At the time of drug addition, an aliquot of frozen concentrate is thawed and diluted to twice the desired final maximum test concentration with complete medium containing 50 μg/ml gentamicin. Additional four, 10-fold or ½ log serial dilutions are made to provide a total of five drug concentrations plus control. Aliquots of 100 μl of these different drug dilutions are added to the appropriate microtiter wells already containing 100 μl of medium, resulting in the required final drug concentrations.
(§3) Following drug addition, the plates are incubated for an additional 48 h at 37° C., 5% CO2, 95% air, and 100% relative humidity. For adherent cells, the assay is terminated by the addition of cold TCA. Cells are fixed in situ by the gentle addition of 50 μl of cold 50% (w/v) TCA (final concentration, 10% TCA) and incubated for 60 minutes at 4° C. The supernatant is discarded, and the plates are washed five times with tap water and air dried. Sulforhodamine B (SRB) solution (100 μl) at 0.4% (w/v) in 1% acetic acid is added to each well, and plates are incubated for 10 minutes at room temperature. After staining, unbound dye is removed by washing five times with 1% acetic acid and the plates are air dried. Bound stain is subsequently solubilized with 10 mM trizma base, and the absorbance is read on an automated plate reader at a wavelength of 515 nm. For suspension cells, the methodology is the same except that the assay is terminated by fixing settled cells at the bottom of the wells by gently adding 50 μl of 80% TCA (final concentration, 16% TCA). Using the seven absorbance measurements [time zero, (Tz), control growth, (C), and test growth in the presence of drug at the five concentration levels (Ti)], the percentage growth is calculated at each of the drug concentrations levels.
(§4) Percentage growth inhibition is calculated as: [(Ti−Tz)/(C−Tz)]×100 for concentrations for which Ti>/=Tz (1) [(Ti−Tz)/Tz]×100 for concentrations for which Ti<Tz (2)
(§5) Growth inhibition of 50% (GI50) is calculated from [(Ti−Tz)/(C−Tz)]×100=50 (3)
(§6) which is the drug concentration resulting in a 50% reduction in the net protein increase (as measured by SRB staining) in control cells during the drug incubation.
(§7) The drug concentration resulting in total growth inhibition (TGI) is calculated from Ti=Tz (4)
(§8) The LC50 (concentration of drug resulting in a 50% reduction in the measured protein at the end of the drug treatment as compared to that at the beginning) indicating a net loss of cells following treatment is calculated from [(Ti−Tz)/Tz]×100=−50 (5)
(§9) Values are calculated for each of these three parameters if the level of activity is reached; however, if the effect is not reached or is exceeded, the value for that parameter is expressed as greater or less than the maximum or minimum concentration tested.

OVCAR-3 = assay: NCI-60 screen (SRB); format: cell-based, human; conditions: OVCAR-3 (Ovarian)
Method: as §1, §2, §3, §4, §5, §6, §7, §8, §9

PC-3 = assay: NCI-60 screen (SRB); format: cell-based, human; conditions: PC-3 (Prostate)
Method: as §1, §2, §3, §4, §5, §6, §7, §8, §9

MDA-MB-468 = assay: NCI-60 screen (SRB); format: cell-based
How it was run: (§10)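 First, cells are seeded and incubated for 24 h, when time-zero plates are fixed. Next, drug is added at five concentrations and incubation continues 48 h. Finally, cells are TCA-fixed, SRB-stained and read at 515 nm to calculate percent growth.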

HCT-15 = assay: NCI-60 screen (SRB); format: cell-based; conditions: HCT-15 (Colon)
How it was run: as §10

MOLM-14 cell line = assay: Growth inhibition assay of MOLM-14 (CellTiter-Glo, example 63); format: cell-based; conditions: Homo sapiens, 48 h, method of example 63
Method: MOLM-14 cell line was cultured in RPMI-1640 Medium supplemented with 10% v/v Fetal Bovine Serum (FBS), 1% Penicillin-Streptomycin and maintained at 37° C. with 5% CO2. 10,000 cells were plated onto 96-well plates immediately before the assay.
Each compound was added at different concentrations (combinations of six concentrations) to each well, and cell cultures were incubated for 48 h. Vehicle (H2O) was used as a control, and all compounds were tested in a constant percentage of vehicle. Cell outgrowth was measured using the CellTiter-Glo luminescent cell viability assay as described by the manufacturer (Promega, Ref G7571 Madison, Wis., USA) using a Centro (Berthold, France) plate reader.
In each experiment, each point represents the average of triplicates in cell culture.
The experimental data are analyzed using a computer program, Graphpad Prism (GraphPad Software, Inc. La Jolla, Calif.) and EC50 values were determined as the dose of compound required to reduce absorbance values to 50% of the signal obtained for vehicle treated cell cultures.

[1] = Homo sapiens, read-out: LC50 (the source's name)

## CC(C)(C)NC1CCN(c2cc(-c3ccc(Cl)cc3)nc3ccccc23)CC1.Cl.Cl [XII-4, 2-(4-chloro-phenyl)-4-(4-N-tert-butylamino-piperidin-1-yl)quinoline dihydrochloride]
UACC-62
  Growth percent at 10 μM: ××××× (cell growth % < −80)
OVCAR-3
  Growth percent at 10 μM: − (cell growth % > 80)
PC-3
  Growth percent at 10 μM: +++ (cell growth 20 > % < 40)
MDA-MB-468; MDA-MB-468 (Breast)
  Growth percent at 10 μM: ×× (cell growth −20 < % > −40)
HCT-15
  Growth percent at 10 μM: ++++ (cell growth 0 > % < 20)

## CCN(CC)C1CCN(C(C)c2cc(-c3ccccc3)nc3ccccc23)CC1.Cl.Cl (stereo not drawn) [XIX-3, 2-phenyl-4-{1-[4-(N,N-diethylamino)piperidin-1-yl]-eth-1-yl}quinoline dihydrochloride]
UACC-62
  Growth percent at 10 μM: ×××× (cell growth −60 > % < −80)
OVCAR-3; Homo sapiens
  GI50: 14 µM
OVCAR-3; [1]
  CC50: 55 µM
OVCAR-3
  TGI: 28 µM
  Growth percent at 10 μM: + (cell growth 60 > % < 80)
PC-3
  Growth percent at 10 μM: + (cell growth 60 > % < 80)
MDA-MB-468; Homo sapiens, MDA-MB-468, read-out: LC50
  CC50: 38 µM
MDA-MB-468; Homo sapiens, MDA-MB-468 (Breast)
  GI50: 3 µM
MDA-MB-468; MDA-MB-468 (Breast)
  TGI: 10 µM
  Growth percent at 10 μM: +++ (cell growth 20 > % < 40)
HCT-15
  TGI: 14 µM
  Growth percent at 10 μM: ++++ (cell growth % < 20)
HCT-15; Homo sapiens
  GI50: 3 µM
HCT-15; [1]
  CC50: 47 µM
MOLM-14 cell line
  EC50: 22 µM

## Cc1ccc(-c2cc(N3CCC(NC(C)(C)C)CC3)c3ccccc3n2)cc1.Cl.Cl [XIII-8, 2-(4-methyl-phenyl)-4-(4-N-tert-butylamino-piperidin-1-yl)quinoline dihydrochloride]
MOLM-14 cell line
  EC50: 6 µM
